In data set [1] the target is human OX1R (Homo sapiens (Human), UniProt O43613). The experiment in a line: Calcium flux in cells stably expressing OX1 receptor (FLIPR, Fluo-8 AM). As to conditions: CHO-K1/human OX1R cells; inhibition of calcium flux, agonist OX-A at EC80. Format: cell-based. As for the experimental part: (§1) To determine the inhibitory effect of the compounds on calcium flux in CHO-K1/human OX1R and CHO-K1/human OX2R cells.
(§2) • 1) CHO-K1/human OX1R and CHO-K1/human OX2R cell lines were cultured separately in complete medium at 37° C., 5% CO2 to 70%˜90% confluence; • 2) A 384-well cell culture plate was coated with 1× Matrigel (5 uL per well) at room temperature for 10-30 minutes; • 3) The cells were digested and resuspended in cell inoculation medium. CHO-K1/human OX1R and CHO-K1/human OX2R cell lines were inoculated into two 384-well cell culture plates respectively (8,000 cells/well/20 μL). The culture plates were incubated at 37 °C, 5% CO2 for 24 hours; • 4) The cell culture plates were taken out of the CO2 incubator and equilibrated at room temperature for 10 minutes; • 5) 1000× Fluo-8 AM was diluted with assay buffer 1 equilibrated to room temperature to obtain 1× Fluo-8 AM at a concentration of 2 μM; • 6) The culture medium in the cell culture plate was removed, and 20 μL of 1× Fluo-8 AM was added to each well. The plates were centrifuged at room temperature at 300 rpm for 60 seconds, and incubated at room temperature in the dark for 1 hour; • 7) Determination of EC80 of OX1 and OX2 receptors agonists (OX-A for OX1R assays, OX-B for OX2R assays): OX1 and OX2 receptors agonists working solutions were diluted and prepared respectively. The diluted OX1 and OX2 receptors agonists were added using FLIPR Tetra to the experimental wells of the 384-well cell culture plates corresponding to CHO-K1/human OX1R and CHO-K1/human OX2R cell lines. The data were collected, and EC80 of OX-A and OX-B was obtained according to the following experimental data processing method; • 8) Steps 1 to 7 were repeated. […] After 15 minutes, OX1 and OX2 receptors agonists were added to the plates of the two cell lines respectively according to the previously obtained EC80. The data were collected, and the IC50 of the positive compounds and the test compounds was determined.
(§3) Fluorescence signal value (RFU) was collected with FLIPR Tetra.

The target in data set [2] is human OX2R (Homo sapiens (Human), UniProt O43614). The experiment in a line: Calcium flux in cells stably expressing OX2 receptor (FLIPR, Fluo-8 AM). It is filed as cell-based. The conditions noted are these: for IC50: CHO-K1/human OX2R cells, inhibition of calcium flux, agonist OX-B at EC80; for Selectivity multiple: OX1R IC50 versus OX2R IC50. On the procedure: as §1, §2, §3
Background: A change in cytosolic calcium serves as a functional read-out for many receptors and channels.

A short description of data set [3]: in vivo. The conditions noted are these: male, SD, rat, po, 5 mg/kg. As for the experimental part:
SD rats were used as test animals.
The plasma samples were stored at −80° C.

Data set [4] addresses CYP450 1A2 (Homo sapiens (Human), UniProt P05177). As for the experimental part:
(§4) The human liver microsome incubation system was used to rapidly predict the inhibitory effect of the compounds on CYP450 enzyme subtypes by using single-point method.
(§5) The compound of the example to be tested was weighed, diluted to 10 mM with DMSO, and then diluted to 100 μM with 100 mM phosphate buffer.
(§6) • 1. 40 μL of liver microsomes, 10 μL of substrate, and 10 μL of the test compound were added to a 96-well plate, and pre-incubated for 3 minutes. • 2. 40 μL of NADPH was added. • 3. 300 μL of acetonitrile stop solution containing an internal standard was added at 20 minutes. • 4. The sample was injected […].

Data set [5] has as its target CYP450 2C9 (Homo sapiens (Human), UniProt P11712). The experiment in a line: CYP enzyme single point inhibition assay, human liver microsomes, 2C9. As to conditions: single-point method. It is filed as in vitro ADME. As for the experimental part: as §4, §5, §6
A general note: Microsomes from liver hold many membrane-bound enzymes, among them those of drug oxidation.

For data set [6], the target named is CYP450 2D6 (Homo sapiens (Human), UniProt P10635). The experiment in a line: CYP enzyme single point inhibition assay, human liver microsomes, 2D6. Format: in vitro ADME. The conditions noted are these: single-point method. As for the experimental part: as §4, §5, §6

One may read the IC50 as the point on the concentration scale where inhibition reaches its midpoint. One may read the AUC(0-inf) as the area under the concentration-time curve extrapolated to infinity. High values mean more exposure, low ones less exposure. As usually defined, the Cmax is the highest concentration seen after dosing. Broadly, the Tmax is the time at which the peak concentration occurs.

Bounds are passed on as bounds.

Chain of human OX2R (O43614 whole entry): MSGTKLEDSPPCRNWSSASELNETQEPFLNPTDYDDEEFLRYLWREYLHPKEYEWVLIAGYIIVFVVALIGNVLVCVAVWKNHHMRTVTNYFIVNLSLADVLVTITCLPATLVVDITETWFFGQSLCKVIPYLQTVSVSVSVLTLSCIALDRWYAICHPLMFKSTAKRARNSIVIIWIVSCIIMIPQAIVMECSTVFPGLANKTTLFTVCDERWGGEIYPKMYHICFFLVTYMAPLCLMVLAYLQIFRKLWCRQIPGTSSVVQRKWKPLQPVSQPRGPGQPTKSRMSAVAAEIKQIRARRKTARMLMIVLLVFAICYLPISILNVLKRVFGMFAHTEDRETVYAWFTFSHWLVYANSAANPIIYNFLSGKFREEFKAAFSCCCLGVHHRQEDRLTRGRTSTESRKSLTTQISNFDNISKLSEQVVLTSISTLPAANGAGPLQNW
Chain of human OX1R (O43613 whole entry): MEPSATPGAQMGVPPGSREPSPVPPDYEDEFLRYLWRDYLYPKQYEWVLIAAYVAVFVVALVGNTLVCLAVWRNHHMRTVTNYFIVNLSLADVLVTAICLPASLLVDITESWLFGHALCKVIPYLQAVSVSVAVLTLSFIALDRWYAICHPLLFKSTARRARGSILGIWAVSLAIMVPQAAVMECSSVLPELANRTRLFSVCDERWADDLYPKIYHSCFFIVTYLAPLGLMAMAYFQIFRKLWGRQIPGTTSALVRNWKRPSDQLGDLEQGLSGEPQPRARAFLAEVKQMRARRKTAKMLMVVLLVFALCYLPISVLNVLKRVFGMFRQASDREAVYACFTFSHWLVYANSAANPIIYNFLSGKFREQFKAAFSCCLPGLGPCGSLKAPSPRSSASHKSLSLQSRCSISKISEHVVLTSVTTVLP
Chain of CYP450 1A2 (P05177 whole entry): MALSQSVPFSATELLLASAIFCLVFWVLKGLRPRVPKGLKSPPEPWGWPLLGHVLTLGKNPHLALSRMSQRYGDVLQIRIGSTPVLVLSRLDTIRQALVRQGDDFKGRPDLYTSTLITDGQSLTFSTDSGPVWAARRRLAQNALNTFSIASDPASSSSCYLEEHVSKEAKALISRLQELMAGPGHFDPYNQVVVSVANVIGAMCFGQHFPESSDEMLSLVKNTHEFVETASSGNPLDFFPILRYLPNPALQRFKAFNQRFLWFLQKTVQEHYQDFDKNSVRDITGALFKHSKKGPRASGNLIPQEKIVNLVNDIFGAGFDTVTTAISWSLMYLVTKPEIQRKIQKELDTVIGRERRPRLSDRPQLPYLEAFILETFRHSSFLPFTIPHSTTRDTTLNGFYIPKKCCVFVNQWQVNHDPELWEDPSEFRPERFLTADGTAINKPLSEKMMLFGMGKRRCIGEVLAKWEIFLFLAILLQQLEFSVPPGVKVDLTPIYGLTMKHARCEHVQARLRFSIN
Chain of CYP450 2C9 (P11712 whole entry): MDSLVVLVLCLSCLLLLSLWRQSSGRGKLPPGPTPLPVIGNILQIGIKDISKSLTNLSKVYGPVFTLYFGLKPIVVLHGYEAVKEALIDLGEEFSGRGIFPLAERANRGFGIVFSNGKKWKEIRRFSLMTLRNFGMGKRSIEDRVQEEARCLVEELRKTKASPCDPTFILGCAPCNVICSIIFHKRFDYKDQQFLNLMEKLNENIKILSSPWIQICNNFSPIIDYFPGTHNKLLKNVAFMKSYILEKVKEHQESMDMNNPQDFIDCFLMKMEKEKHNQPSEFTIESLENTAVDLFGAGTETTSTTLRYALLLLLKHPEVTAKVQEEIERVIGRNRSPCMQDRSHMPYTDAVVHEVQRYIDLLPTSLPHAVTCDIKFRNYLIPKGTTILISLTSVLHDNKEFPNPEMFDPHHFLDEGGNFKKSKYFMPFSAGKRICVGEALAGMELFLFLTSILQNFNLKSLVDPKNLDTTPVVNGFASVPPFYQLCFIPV
Chain of CYP450 2D6 (P10635 whole entry): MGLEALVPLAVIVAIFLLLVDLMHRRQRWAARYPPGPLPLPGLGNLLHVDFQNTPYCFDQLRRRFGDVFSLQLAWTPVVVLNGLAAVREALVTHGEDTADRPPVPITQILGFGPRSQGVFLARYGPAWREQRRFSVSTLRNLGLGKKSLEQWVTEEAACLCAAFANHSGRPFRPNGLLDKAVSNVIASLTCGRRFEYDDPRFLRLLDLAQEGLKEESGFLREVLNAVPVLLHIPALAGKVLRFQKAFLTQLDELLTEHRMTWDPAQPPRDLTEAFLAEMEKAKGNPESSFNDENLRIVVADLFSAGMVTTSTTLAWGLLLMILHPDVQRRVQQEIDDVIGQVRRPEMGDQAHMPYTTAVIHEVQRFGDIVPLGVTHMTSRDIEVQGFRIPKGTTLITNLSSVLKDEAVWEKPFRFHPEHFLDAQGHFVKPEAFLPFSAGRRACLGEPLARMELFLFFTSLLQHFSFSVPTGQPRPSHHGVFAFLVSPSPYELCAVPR

As to `Cc1cc(C(C)(C)O)nc(N2C[C@H]3CN(C(=O)c4c(F)cccc4-n4nccn4)C[C@H]3C2)n1` [Compound 3, (2-fluoro-6-(2H-1,2,3-triazol-2-yl)phenyl)((3aR,6aS)-5-(4-(2-hydroxypropan-2-yl)-6-methylpyrimidin-2-yl)hexahydropyrrolo[3,4-c]pyrrol-2(1H)-yl)methanone], the IC50 in data set [1] worked out at 3.7 µM; in data set [2], 0.0444 µM. Moreover, the Selectivity multiple in data set [2] is recorded as 83.
The matching figures for `Cc1cc(C)nc(N2C[C@H]3CN(C(=O)c4c(F)cccc4-n4ncc(C5CC5)n4)C[C@H]3C2)n1` [Compound 43, (2-(4-cyclopropyl-2H-1,2,3-triazol-2-yl)-6-fluorophenyl)((3aR,6aS)-5-(4,6-dimethylpyrimidin-2-yl)hexahydropyrrolo[3,4-c]pyrrol-2(1H)-yl)methanone]: 10.2 µM, 0.0999 µM and 102.
Turning to `Cc1cc(C)nc(N2C[C@H]3CN(C(=O)c4ccccc4OC(F)(F)C(F)F)C[C@H]3C2)n1` [Compound 45, ((3aR,6aS)-5-(4,6-dimethylpyrimidin-2-yl)hexahydropyrrolo[3,4-c]pyrrol-2(1H)-yl)(2-(1,1,2,2-tetrafluoroethoxy)phenyl)methanone], the IC50 in data set [1] was 4.33 µM. In data set [2], the IC50 came to 0.0522 µM and the Selectivity multiple is reported as 83.
Regarding `Cc1ccc(N2C[C@H]3CN(C(=O)c4c(F)cccc4-n4nccn4)C[C@H]3C2)nc1C(C)(C)O` [Compound 48, (2-fluoro-6-(2H-1,2,3-triazol-2-yl)phenyl)((3aR,6aS)-5-(6-(2-hydroxypropan-2-yl)-5-methylpyridin-2-yl)hexahydropyrrolo[3,4-c]pyrrol-2(1H)-yl)methanone], the IC50 in data set [1] was determined as 24.4 µM; in data set [2], 0.0745 µM. The Selectivity multiple in data set [2] worked out at 328.
For `Cc1cc(C)nc(N2C[C@H]3CN(C(=O)c4ccccc4-c4nc5ccccc5o4)C[C@H]3C2)n1` [Compound 50, (2-(benzooxazol-2-yl)phenyl)((3aR,6aS)-5-(4,6-dimethylpyrimidin-2-yl)hexahydropyrrolo[3,4-c]pyrrol-2(1H)-yl)methanone] the same measures were 5.84 µM, 0.0711 µM and 82.
For `Cc1cc(C(C)(C)O)nc(N2C[C@H]3CN(C(=O)c4c(F)cccc4-c4ncccn4)C[C@H]3C2)n1` [Compound 56, (2-fluoro-6-(pyrimidin-2-yl)phenyl)((3R,6S)-5-(4-(2-hydroxypropan-2-yl)-6-methylpyrimidin-2-yl)hexahydropyrrolo[3,4-c]pyrrol-2(1H)-yl)methanone] the same measures were 3.32 µM, 0.0082 µM and 405.
For `Cc1cc(C(C)(C)F)nc(N2C[C@H]3CN(C(=O)c4c(F)cccc4-n4nccn4)C[C@H]3C2)n1` [Compound 57, (2-fluoro-6-(2H-1,2,3-triazol-2-yl)phenyl)((3aR,6aS)-5-(4-(2-fluoropropan-2-yl)-6-methylpyrimidin-2-yl)hexahydropyrrolo[3,4-c]pyrrol-2(1H)-yl)methanone], the IC50 in data set [1] amounted to 3.05 µM. Also, in data set [3], the AUC(0-inf) was 279 ng·h/mL, the highest level (Cmax) was 110 ng/mL and the Tmax was found to be 30 min. Besides, in data set [2], the IC50 worked out at 0.0097 µM and the Selectivity multiple is given as 314.
Consider `Cc1cc(N2C[C@H]3CN(C(=O)c4c(F)cccc4-n4nccn4)C[C@H]3C2)nc(C(C)(C)O)c1` [Compound 60, (2-fluoro-6-(2H-1,2,3-triazol-2-yl)phenyl)((3R,6S)-5-(6-(2-hydroxypropan-2-yl)-4-methylpyridin-2-yl)hexahydropyrrolo[3,4-c]pyrrol-2(1H)-yl)methanone], for which the half-inhibitory concentration (IC50) in data set [1] was 13.5 µM; in data set [4] it was more than 100 µM; in data set [2], 0.0552 µM. Also, the Selectivity multiple in data set [2] is on record as 244.
For the compound `Cc1cc(N2C[C@H]3CN(C(=O)c4c(O)cccc4-n4nccn4)C[C@H]3C2)nc(C(C)(C)O)c1` [Compound 85, (2-hydroxy-6-(2H-1,2,3-triazol-2-yl)phenyl)((3R,6S)-5-(6-(2-hydroxypropan-2-yl)-4-methylpyridin-2-yl)hexahydropyrrolo[3,4-c]pyrrol-2(1H)-yl)methanone], in data set [1], the IC50 came to 13.7 µM. In addition, in data set [2], the IC50 turned out to be 0.0585 µM and the Selectivity multiple turned out to be 234.
`CC(C)(O)c1nc(N2C[C@H]3CN(C(=O)c4c(F)cccc4-n4nccn4)C[C@H]3C2)ccc1F` [Compound 91, ((3aR,6aS)-5-(5-fluoro-6-(2-hydroxypropanyl)pyridin-2-yl)hexahydropyrrolo[3,4-c]pyrrol-2(1H)-yl)(2-fluoro-6-(2H-1,2,3-triazol-2-yl)phenyl)methanone]: the IC50 in data set [1] is 3.16 µM; in data set [2], 0.0359 µM. In addition, the Selectivity multiple in data set [2] is recorded as 88.
Take `CC(C)(O)c1nc(N2C[C@H]3CN(C(=O)c4c(F)cccc4-c4ncccn4)C[C@H]3C2)ncc1F` [Compound 93, ((3aR,6aS)-5-(5-fluoro-4-(2-hydroxypropan-2-yl)pyrimidin-2-yl)hexahydropyrrolo[3,4-c]pyrrol-2(1H)-yl)(2-fluoro-6-(pyrimidin-2-yl)phenyl)methanone]: the 50% inhibitory concentration (IC50) in data set [4], in data set [5] and in data set [6] was more than 100 µM each time. Further, the Selectivity multiple in data set [2] is given as 122.
Take `Cc1nc(N2C[C@H]3CN(C(=O)c4ccc(F)cc4-n4nccn4)C[C@H]3C2)nc(C(C)(C)O)c1F` [Compound 94, (4-fluoro-2-(2H-1,2,3-triazol-2-yl)phenyl)((cis)-5-(5-fluoro-4-(2-hydroxypropan-2-yl)-6-methylpyrimidin-2-yl)hexahydropyrrolo[3,4-c]pyrrol-2(1H)-yl)methanone]: in data set [1], the IC50 came out at 1.2 µM. In data set [2], the IC50 amounted to 0.0252 µM and the Selectivity multiple was found to be 48.
For `Cc1nc(N2C[C@H]3CN(C(=O)c4cccc(F)c4-n4nccn4)C[C@H]3C2)nc(C(C)(C)O)c1F` [Compound 95, (3-fluoro-2-(2H-1,2,3-triazol-2-yl)phenyl)((cis)-5-(5-fluoro-4-(2-hydroxypropan-2-yl)-6-methylpyrimidin-2-yl)hexahydropyrrolo[3,4-c]pyrrol-2(1H)-yl)methanone], the IC50 in data set [4], in data set [5] and in data set [6] was more than 100 µM each time. Moreover, the Selectivity multiple in data set [2] was 49.
Consider `Cc1nc(N2C[C@H]3CN(C(=O)c4c(F)cccc4-c4ccccn4)C[C@H]3C2)nc(C(C)(C)O)c1F` [Compound 97, ((3aR,6aS)-5-(5-fluoro-4-(2-hydroxypropan-2-yl)-6-methylpyrimidin-2-yl)hexahydropyrrolo[3,4-c]pyrrol-2(1H)-yl)(2-fluoro-6-(pyridin-2-yl)phenyl)methanone], for which the Selectivity multiple in data set [2] is listed as 36.

The record behind these values is patent US20240208981A1, “NITROGEN-CONTAINING HETEROCYCLIC POLYCYCLIC COMPOUND, PREPARATION METHOD THEREFOR, AND APPLICATION THEREOF” (Shanghai Hansoh Biomedical Co., Ltd., priority 2021, published 2024).
